Test results taken from patent publication US20100075978A1, “SULFONAMIDE DERIVATIVES AS BRADYKININ ANTAGONISTS” (priority 2006, published 2010).
Counter-ions that a name gives are not always drawn.

Tests used:
[1] = biological target: T1, human recombinant bradykinin B1 receptor (Homo sapiens, UniProt P46663); experiment: Human recombinant bradykinin B1 receptor binding; conditions: radioligand [3H]-[Des-Arg10] Kallidin, CHO cell membranes; read-out: B1 binding
T1 construct: purchased Euroscreen ES-091; host or cells: CHO cells
T1 sequence (P46663 1-353): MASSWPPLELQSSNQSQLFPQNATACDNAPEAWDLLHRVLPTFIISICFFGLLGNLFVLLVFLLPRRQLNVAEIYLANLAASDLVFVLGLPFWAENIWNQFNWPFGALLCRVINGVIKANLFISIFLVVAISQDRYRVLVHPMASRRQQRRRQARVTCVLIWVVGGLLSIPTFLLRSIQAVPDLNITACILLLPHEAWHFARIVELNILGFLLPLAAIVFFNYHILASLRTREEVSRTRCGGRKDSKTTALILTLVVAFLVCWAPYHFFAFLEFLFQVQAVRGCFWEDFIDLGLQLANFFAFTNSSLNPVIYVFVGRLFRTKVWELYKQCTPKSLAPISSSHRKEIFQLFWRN
Description: 1. Human Recombinant Bradykinin B1 Receptor Binding
Binding assays were carried out on human recombinant bradykinin) receptors (expressed in CHO cells) according to the Euroscreen Technical Data Sheet (Cat.No.:ES-091). 20 μg protein/tube was incubated with [3,4-prolyl-3,4-^3H(N)]-[Des-Arg^10] Kallidin as radioligand. Non specific binding was determined in the presence of 10 μM Lys-des-Arg^9-Bradykinin. The final incubation volume was 250 μl. Samples were incubated for 15 min. at 25° C. then were rapidly vacuum filtered through GF/B filters presoaked for at least 1 h in 0.5% PEI. Radioactivity was determined by liquid scintillation spectroscopy.

[2] = biological target: T2, recombinant human B1 receptors (Homo sapiens, UniProt P46663); experiment: Functional assay: cytosolic calcium ion concentration measured with plate reader fluorimeter in CHO-B1 cells, agonist LysDABK; type: cell-based; conditions: CHO-B1 cells, LysDABK at EC80, [Ca2+]i; read-out: B1 func.
T2 construct: host or cells: CHO (CHO-B1)
T2 sequence (P46663 1-353): T1 sequence (P46663 1-353)
Description: Assessment of Antagonist Potency at B1 and B2 Receptors In Vitro by Measurement of Cytosolic Calcium Ion Concentration with a Plate Reader Fluorimeter in Cells Expressing Recombinant Human B1 or B2 Receptors
Chinese hamster ovary (CHO) cells stably expressing recombinant human B1 (CHO-B1, Euroscreen) or B2 (CHO-B2, Perkin-Elmer) receptors were cultured in Dulbecco's Modified Eagle's Medium (DMEM) containing 10% Fetal Calf Serum (FCS), 100 U/ml penicillin, 0.1 mg/ml streptomycin, 0.25 μg/ml amphotericin B, 1% Minimum Essential Medium Eagle (MEM), non essential amino acid solution, 600 μg/ml G418, 1% pyruvate (for the B2 cell line). Cells were kept at 37° C. in a humidified incubator in an atmosphere of 5% CO2/95% air and were passaged 1:4 three times a week. Cells were plated at 1.5-2.5×10^4 cell/well on standard 96-well microplates, measurements of cytosolic calcium ion concentration ([Ca^2+]i) were carried out 1-2 days after cell plating.
Measurements of [Ca^2+]i were carried out on CHO-B1 and CHO-B2 cells stably expressing human B1 and B2 receptors, respectively. Cells were grown in standard 96-well microplates and before the measurement were loaded with a fluorescent Ca^2+-sensitive dye, fluo-4/AM (2 μM): after removing the culture medium the dye was added to the cells (dissolved in assay buffer: 145 mM NaCl, 5 mM KCl, 2 mM MgCl2, 2 mM CaCl2, 10 mM HEPES, 20 mM D-glucose, 2 mM probenecid, 100 μl/well) and cells were incubated at 37° C. in a humidified incubator in an atmosphere of 5% CO2/95% air for 40-120 min. To stop dye loading cells were washed twice with assay buffer. After washing, various concentrations of the test compounds (diluted in extracellular medium from a DMSO stock solution, final DMSO concentration was <0.1%) or buffer were added to each well depending on the experimental setup. After incubation at 37° C. for 20-25 min. baseline and agonist-evoked changes of [Ca^2+]i were measured column by column with a plate reader fluorimeter (Fluoroskan Ascent, Labsystems). Excitation and detection of emission was carried out from the bottom of the plate. Filters used for Fluo-4: excitation filter—485 nm, emission filter—538 nm. The whole measurement process was performed at 37° C. and was controlled by custom software. Inhibitory potency of the test compounds was assessed by measuring the reduction in the agonist-evoked [Ca^2]i-elevation in the presence of different concentrations of the compounds. The agonists were LysDABK for CHO-B1, and bradykinin for CHO-B2 cells. Agonists were applied at an EC80 concentration, the EC80-values were derived from daily determined dose-response curves. Fluorescence data were expressed as ΔF/F (fluorescence change normalized to baseline). All treatments on a single plate were measured in multiple wells. Data from all wells with the same treatment were averaged and the average values were used for analysis. Inhibitory potency of a compound at a single concentration point was expressed as percent inhibition of the control agonist response. Sigmoidal concentration-inhibition curves were fitted to the data (derived from at least three independent experiments) and IC50-values were determined as the concentration that produces half of the maximal inhibition caused by the compound.

Row | SMILES | Ki [1] | IC50 [2]
1 | O=C(Nc1ccc(N2CCC(N3CCCCC3)CC2)cc1)c1ccc(S(=O)(=O)Nc2cc(F)ccc2Oc2ccc(Br)cc2)cc1 [Example 58, N-(4-[1,4′]Bipiperidinyl-1′-yl-phenyl)-4-[2-(4-bromo-phenoxy)-5-fluoro-phenylsulfamoyl]-benzamide] | < 20 nM | < 20 nM
2 | O=C(NCCC(=O)N1CCC(N2CCCCC2)CC1)c1ccc(S(=O)(=O)Nc2ccccc2Oc2ccc(Cl)cc2Cl)cc1 [Example 62, N-(3-[1,4′]Bipiperidinyl-1′-yl-3-oxo-propyl)-4-[2-(2,4-dichloro-phenoxy)-phenylsulfamoyl]-benzamide trifluoroacetate] | < 20 nM | < 20 nM
3 | CC(CNC(=O)c1ccc(S(=O)(=O)Nc2ccccc2Oc2ccc(Cl)cc2Cl)cc1)N1CCN(c2ccncc2)CC1 (stereo not drawn) [Example 28, 4-[2-(2,4-Dichloro-phenoxy)-phenylsulfamoyl]-N-{2-[4-pyridin-4-yl-piperazin-1-yl)-propyl]-benzamide] | < 20 nM | < 20 nM
4 | O=C(NCCCN1CCC(N2CCCCC2)CC1)c1ccc(S(=O)(=O)Nc2ccccc2Oc2ccc(Br)cc2Cl)cc1 [Example 157, N-(3-[1,4′]Bipiperidinyl-1′-yl-propyl)-4-[2-(4-bromo-2-chloro-phenoxy)-phenylsulfamoyl]-benzamide] | < 20 nM | < 20 nM
5 | O=C(N[C@H]1CC[C@H](CCN2CCCC2)CC1)c1ccc(S(=O)(=O)Nc2ccccc2Oc2ccc(F)cc2Cl)cc1 [Example 121, trans-4-[2-(2-Chloro-4-fluoro-phenoxy)-phenylsulfamoyl]-N-[4-(2-pyrrolidin-1-yl-ethyl)-cyclohexyl]-benzamide] | 20 to 100 nM | 20 to 100 nM
6 | O=C(NCCCN1CCC(N2CCCCC2)CC1)c1ccc(S(=O)(=O)Nc2ccccc2Oc2ccc(F)cc2Cl)cc1 [Example 116, N-(3-[1,4′]Bipiperidinyl-1′-yl-propyl)-4-[2-(2-chloro-4-fluoro-phenoxy)-phenylsulfamoyl]-benzamide] | < 20 nM | < 20 nM
7 | O=C(NCCCN1CCC(N2CCCCC2)CC1)c1ccc(S(=O)(=O)Nc2ccccc2Oc2ccccc2)cc1 [Example 152, N-(3-[1,4′]Bipiperidhlyl-1′-yl-propyl)-4-(2-phenoxy-phenylsulfamoyl)-benzamide] | 20 to 100 nM | 20 to 100 nM
8 | O=C(c1ccc(S(=O)(=O)Nc2ccccc2Oc2ccc(Cl)c(Cl)c2)cc1)N1CCN(CCCN2CCCCC2)CC1 [Example 87, N-[2-(3,4-Dichloro-phenoxy)-phenyl]-4-[4-(3-piperidin-1-yl-propyl)-piperazine-1-carbonyl]-benzenesulfonamide] | 100 to 500 nM | 100 to 500 nM
9 | O=C(CCNC(=O)c1ccc(S(=O)(=O)Nc2ccccc2Oc2ccc(Cl)cc2Cl)cc1)NC1CCNCC1 [Example 33, 4-[2-(2,4-Dichloro-phenoxy)-phenylsulfamoyl]-N-[2-(piperidin-4-ylcarbamoyl)-ethyl]-benzamide acetate] | 20 to 100 nM | 20 to 100 nM
10 | O=C(NCCC1CCNCC1)c1ccc(S(=O)(=O)Nc2ccccc2Oc2ccc(Cl)cc2Cl)cc1 [Example 11, 4-[2-(2,4-Dichloro-phenoxy)-phenylsulfamoyl]-N-(2-piperidin-4-ylethyl)-benzamide trifluoroacetate] | 20 to 100 nM | 20 to 100 nM
11 | O=C(NCCCC1CCNCC1)c1ccc(S(=O)(=O)Nc2ccccc2Oc2ccc(Cl)cc2Cl)cc1 [Example 137, 4-[2-(2,4-Dichloro-phenoxy)-phenylsulfamoyl]-N-(3-piperidin-4-yl-propyl)-benzamide trifluoracetate] | 20 to 100 nM | 20 to 100 nM
12 | O=C(N[C@H]1CC[C@H](CCN2CCCC2)CC1)c1ccc(S(=O)(=O)Nc2ccccc2Oc2ccc(Cl)cc2Cl)cc1 [Example 9, trans-4-[2-(2,4-Dichloro-phenoxy)-phenylsulfamoyl]-N-[4-(2-pyrrolidin-1-ylethyl)-cyclohexyl]-benzamide] | < 20 nM | 20 to 100 nM
13 | O=C(NCc1ccc(CC2CCNCC2)cc1)c1ccc(S(=O)(=O)Nc2ccccc2Oc2ccc(Br)cc2Cl)cc1 [Example 166, 4-[2-(4-Bromo-2-chloro-phenoxy)-phenylsulfamoyl]-N-(4-piperidin-4-ylmethyl-benzyl)-benzamide hydrochloride] | 20 to 100 nM | 20 to 100 nM
14 | O=C(Nc1ccc(N2CCC(N3CCCCC3)CC2)cc1)c1ccc(S(=O)(=O)Nc2ccccc2Oc2ccc(C(F)(F)F)cc2)cc1 [Example 127, N-(4-[1,4′]Bipiperidinyl-1′-yl-phenyl)-4-[2-(4-trifluoromethyl-phenoxy)-phenylsulfamoyl]-benzamide] | 20 to 100 nM | < 20 nM
15 | O=C(NCCCN1CCC(N2CCCCC2)CC1)c1ccc(S(=O)(=O)Nc2ccccc2Oc2ccc(C(F)(F)F)cc2)cc1 [Example 129, N-(3-[1,4′]Bipiperidinyl-1′-yl-propyl)-4-[2-(4-trifluoromethyl-phenoxy)-phenylsulfamoyl]-benzamide] | 20 to 100 nM | 20 to 100 nM
16 | O=C(NCCc1ccc(C2=NCCN2)cc1)c1ccc(S(=O)(=O)Nc2ccccc2Oc2ccc(Cl)cc2)cc1 [Example 6, 4-[2-(4-Chloro-phenoxy)-phenylsulfamoyl]-N-{2-[4-(4,5-dihydro-1H-imidazol-2-yl)-phenyl]-ethyl}-benzamide] | < 20 nM | < 20 nM
17 | O=C(CCNC(=O)c1ccc(S(=O)(=O)Nc2ccccc2Oc2ccc(Cl)cc2Cl)cc1)NCCC1CCNCC1 [Example 56, 4-[2-(2,4-Dichloro-phenoxy)-phenylsulfamoyl]-N-[2-(2-piperidin-4-yl-ethylcarbamoyl)-ethyl]-benzamide hydrochloride] | < 20 nM | 20 to 100 nM
18 | O=C(NCCCCC1CCNCC1)c1ccc(S(=O)(=O)Nc2ccccc2Oc2ccc(Br)cc2)cc1 [Example 101, 4-[2-(4-Bromo-phenoxy)-phenylsulfamoyl]-N-(4-piperidin-4-yl-butyl)-benzamide hydrochloride] | 20 to 100 nM | 20 to 100 nM
19 | O=C(NCCCN1CCN(c2ccncc2)CC1)c1ccc(S(=O)(=O)Nc2cc(F)ccc2Oc2ccc(Br)cc2)cc1 [Example 105, 4-[2-(4-Bromo-phenoxy)-5-fluoro-phenylsulfamoyl]-N-[3-(4-pyridin-4-yl-piperazin-1-yl)-propyl]-benzamide] | < 20 nM | < 20 nM
20 | O=C(NCCNC(=O)C1CCNCC1)c1ccc(S(=O)(=O)Nc2ccccc2Oc2ccc(Cl)cc2Cl)cc1 [Example 29, Piperidine-4-carboxylic acid (2-{4-[2-(2,4-dichloro-phenoxy)-phenylsulfamoyl]-benzoylamino}-ethyl)-amide hydrochloride] | 20 to 100 nM | 20 to 100 nM
21 | O=C(NCCCN1CCN(c2ccncc2)CC1)c1ccc(S(=O)(=O)Nc2ccccc2Oc2ccc(Br)cc2)cc1 [Example 114, 4-[2-(4-Bromo-phenoxy)-phenylsulfamoyl]-N-[3-(4-pyridin-4-yl-piperazin-1-yl)-propyl]-benzamide] | < 20 nM | < 20 nM
